The values that follow come from patent publication US7067277B1, “Chimeric G proteins and uses thereof” (H. Lundbeck A/S, priority 1999, dated 2006).

This assay concerns the target T1, Human NPFF1 (Homo sapiens, UniProt Q9GZQ6).
T1 construct: linearized plasmids or PCR products containing the complete coding region of the genes; expressed in transfected cells; host or cells: Xenopus laevis oocytes (receptor cRNA injected)
The assay is described as follows: Cl- current recording in Xenopus oocytes expressing GPCR and chimeric G protein. The assay is classed as cell-based. Conditions: oocytes injected with 50 nl of 10 mM EGTA. The method, then: Oocytes were harvested from Xenopus laevis and injected with mRNA transcripts as previously described (Quick and Lester, 1994; Smith et al., 1997). Receptor and chimeric G protein α subunit RNA transcripts were synthesized using the T7 polymerase (“Message Machine,” Ambion) from linearized plasmids or PCR products containing the complete coding region of the genes. Oocytes were injected with 5–25 ng synthetic receptor RNA and incubated for 3–8 days at 17 degrees. Three to eight hours prior to recording, oocytes were injected with 500 pg chimeric Gα subunit mRNA. Dual electrode voltage clamp (Axon Instruments Inc.) was performed using 3 M KCl-filled glass microelectrodes having resistances of 1–2 MOhm. Unless otherwise specified, oocytes were voltage clamped at a holding potential of −80 mV. During recordings, oocytes were bathed in continuously flowing (1–3 ml/min) medium containing 96 mM NaCl, 2 mM KCl, 1.8 mM CaCl2, 1 mM MgCl2, and 5 mM HEPES, pH 7.5 (ND96). Drugs were applied by local perfusion from a 10 μl glass capillary tube fixed at a distance of 0.5 mm from the oocyte. Experiments were carried out at room temperature. All values are expressed as mean±standard error of the mean.

T1 sequence (Q9GZQ6 whole entry): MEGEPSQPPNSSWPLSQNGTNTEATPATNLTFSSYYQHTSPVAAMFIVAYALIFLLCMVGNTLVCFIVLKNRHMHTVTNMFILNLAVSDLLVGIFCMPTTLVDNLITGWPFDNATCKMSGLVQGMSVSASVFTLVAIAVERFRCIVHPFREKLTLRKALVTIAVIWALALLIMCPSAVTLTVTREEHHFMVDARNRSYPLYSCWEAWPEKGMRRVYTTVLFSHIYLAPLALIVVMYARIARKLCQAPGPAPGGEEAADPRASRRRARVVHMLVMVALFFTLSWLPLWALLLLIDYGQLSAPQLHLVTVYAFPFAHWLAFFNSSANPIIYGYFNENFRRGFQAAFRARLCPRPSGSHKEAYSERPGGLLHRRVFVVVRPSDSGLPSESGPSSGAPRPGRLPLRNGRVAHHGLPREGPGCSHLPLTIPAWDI

Turning to `O=C(O)CN(CCOCCOCCN(CC(=O)O)CC(=O)O)CC(=O)O` [EGTA, reference compound], the “currents stimulated by NPFF in oocytes expressing NPFF1 and cGαq/z5” value is recorded as “blocked”.
